What was measured:
[1] = target: T1, récepteurs β₁ adrénergiques (Cavia porcellus, UniProt H0W3H1); assay: Blockade of β1 adrenergic receptors in vitro: isoprenaline concentration-effect curves on atrial rate of isolated right atria (Schild analysis); assay type: cell-based, cobaye; conditions: for déplacement des courbes concentration-effet à l'isoprénaline: R(+) at 0,3, 1, 3 µM, S(-) at 0,1, 0,3, 1 µM, 30 min before the second curve; for Kb: Schild method, antagonism of isoprenaline on atrial rate, isolated guinea pig right atrium, 32°C, confidence interval in brackets, read-out: pA₂ (converted)
T1 construct: L'oreillette droite est séparée du coeur; from tissue; host or cells: isolated right atrium of male guinea pigs
Description: 1. Efficacité des isomères (S)(-) et (R)(+) du cicloprolol en tant que bloquants des récepteurs β₁ adrénergiques dans des conditions in vitro.
Préparation des oreillettes droites.
Des cobayes mâles (race tricolore : élevage LESSIEUX) pesant 200-250 g sont sacrifiés par dislocation cervicale. Les coeurs sont rapidement retirés de la cage thoracique et placés dans une solution de Krebs dans laquelle barbote un mélange de 95 % de O₂ et 5 % de CO₂. La composition de cette solution en mM est : NaCl 118; KCl 4,7; CaCl₂ 2,6; KH₂PO₄ 1,2; MgCl₂ 1,2; NaHCO₃ 25; glucose 11,7; acide ascorbique 1,0. L'oreillette droite est séparée du coeur. Sa base est attachée à un crochet monté sur un support et son apex à un autre petit crochet auquel un fil est accroché. La préparation est transférée dans un bain à organe contenant 20 ml de solution de Krebs oxygénée à 32°C et le fil est connecté à un transducteur de force (Grass, modèle : FTO3C). Une tension de repos de 0,5 g est appliquée à l'oreillette et les signaux de force contractile servent à déclencher un cardiotachomètre pour mesurer le rythme atrial. La force contractile et le rythme atrial sont enregistrés sur un polygraphe.
Après une période de stabilisation de 50 minutes, le tissu est soumis à une concentration de 0,01 µM d'isoprénaline puis est lavé à plusieurs reprises pendant 20 minutes. Immédiatement après, la courbe concentration-effet complète est déterminée en additionnant au bain des concentrations de plus en plus fortes d'isoprénaline (demi-intervalles de l'échelle logarithmique) jusqu'à ce que le rythme atrial ne puisse plus augmenter davantage. Chaque concentration successive d'isoprénaline est ajoutée quand la réponse à la concentration précédente atteint un état stable apparent. A la fin de cette courbe concentration-effet, la préparation est lavée toutes les 10 minutes, pendant 30 minutes, pour lui laisser retrouver son rythme de battement minimal. Puis, une deuxième courbe de réponse aux concentrations est effectuée 30 minutes après avoir soumis la préparation aux différentes concentrations de R(+)-cicloprolol (0,3; 1; et 3 µM) ou de S(-)-cicloprolol (0,1; 0,3 et 1 µM). Les modifications maximales du rythme atrial engendrées par chaque concentration d'isoprénaline sont exprimées en pourcentage par rapport à la réponse émise lors d'une concentration supramaximale d'isoprénaline. Ces valeurs sont utilisées pour construire la courbe concentration-effet dans un repère semi-logarithmique. Il faut noter que si le rythme initial au début de la seconde courbe concentration-effet diffère de celle de la 1ère courbe, la réponse maximale utilisée pour calculer les pourcentages est déterminée par la différence entre le rythme initial de l'oreillette avant l'initiation de la seconde courbe concentration-effet et le rythme atteint par l'oreillette après l'addition de la plus grande concentration d'isoprénaline lors de la première courbe de réponse.
Le logarithme changé de signe de la concentration d'isoprénaline produisant 50 % de l'effet maximal (pD₂) est calculé pour chaque courbe de réponse avant et après chaque concentration de S(-) ou de R(+)-cicloprolol. Les valeurs logarithmiques (concentration ratio-1) sont portées sur l'ordonnée en fonction du logarithme négatif de la concentration d'antagoniste. (Arunlakshana et Schild, Br. J. Pharmacol. 14, 48-54, 1959). […]

Rat amyélé = assay: Partial β-agonist activity in vivo: heart rate increase in the pithed rat after cumulative i.v. doses; conditions: for ED (50 beats per minute increase): iv, dose giving a heart rate increase of 50 beats per minute, pithed rat, i.v., read-out: DE₅₀; for augmentation maximale de fréquence cardiaque (effet agoniste partiel): pithed anaesthetised rat, cumulative i.v. doses
Method: 2. Propriétés β-agonistes partielles des isomères (S)(-) et (R)(+) du cicloprolol.
L'activité β-agoniste partielle des deux énantiomères du cicloprolol, a été étudiée in vivo chez le Rat amyélé. Des rats (Spraque-Dawley; Charles River, France) mâles de 250 g environ sont anesthésiés au pentobarbital sodique (55 mg/kg i.p.), amyélés puis placés sous respiration artificielle. La pression artérielle est captée par voie sanglante au niveau de la carotide et l'onde pulsatile alimente un tachographe gui permet de mesurer la fréquence cardiaque. Les composés sont injectés par voie intraveineuse au niveau de la veine fémorale. Ces rats amyélés présentent une fréquence cardiaque réduite d'environ 30 % par rapport à celle de rats intacts anesthésiés. L'activité agoniste partielle des énantiomères est déterminée par l'injection de doses cumulatives des énantiomères. On détermine la dose permettant une augmentation de la fréquence cardiaque de 50 battements par minute (DE₅₀) ainsi que le maximum de l'effet.

[2] = Cardiac stimulant activity in man; assay type: in vivo, homme; conditions: no method or data given

T1 sequence (H0W3H1 1-470): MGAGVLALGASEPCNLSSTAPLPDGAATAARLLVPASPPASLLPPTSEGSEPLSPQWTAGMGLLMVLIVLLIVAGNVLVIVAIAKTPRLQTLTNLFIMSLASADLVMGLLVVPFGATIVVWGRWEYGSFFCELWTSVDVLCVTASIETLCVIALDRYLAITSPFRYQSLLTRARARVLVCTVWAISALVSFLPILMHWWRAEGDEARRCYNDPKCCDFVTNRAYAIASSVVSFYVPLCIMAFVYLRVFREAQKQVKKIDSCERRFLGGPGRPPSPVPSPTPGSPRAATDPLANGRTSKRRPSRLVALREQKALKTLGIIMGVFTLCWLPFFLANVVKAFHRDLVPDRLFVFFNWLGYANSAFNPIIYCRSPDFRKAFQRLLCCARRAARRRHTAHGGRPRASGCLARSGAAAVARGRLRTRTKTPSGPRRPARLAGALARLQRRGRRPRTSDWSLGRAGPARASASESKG

Row | Kb [1] | fois plus puissant que le (R)(+)-cicloprolol, comme antagoniste des récepteurs β₁ adrénergiques ([1]; antilog(7,44 - 6,62), ratio of the pA₂ values) | SMILES | déplacement des courbes concentration-effet à l'isoprénaline [1] | ED (50 beats per minute increase) (Rat amyélé) | augmentation maximale de fréquence cardiaque (effet agoniste partiel) (Rat amyélé) | activité stimulante cardiaque [2]
1 | 0.24 µM | – | CC(C)NC[C@@H](O)COc1ccc(OCCOCC2CC2)cc1 [(R)(+)-cicloprolol, (R)-(+)-1-[4-[2(cyclopropylméthoxy)éthoxy]phénoxy]-3-[(1-méthyléthyl)amino]propan-2-ol] | déplacent vers la droite les courbes concentration-effet à l'isoprénaline de façon parallèle et sans changer la réponse maximale | 122 ± 2 µg/kg | 113 ± 5 bat/min | –
2 | 0.0363 µM | 6,6 fois | CC(C)NC[C@H](O)COc1ccc(OCCOCC2CC2)cc1 [(S)(-)-cicloprolol, (S)-(-)-1-[4-[2-(cyclopropylméthoxy)éthoxy]phénoxy]-3-[(1-méthyléthyl)amino]propan-2-ol] | déplacent vers la droite les courbes concentration-effet à l'isoprénaline de façon parallèle et sans changer la réponse maximale | 4.6 ± 0.1 µg/kg | 107 ± 3 bat/min | –
3 | – | – | CC(C)NCC(O)COc1ccc(OCCOCC2CC2)cc1 (stereo not drawn) [cicloprolol, 1-[4-[2-(cyclopropylméthoxy)éthoxy]phénoxy]-3-[(1-méthyléthyl)amino]propan-2-ol] | – | – | – | a été confirmée chez l'homme
4 | – | – | CC(C)NCC(O)c1ccc(O)c(O)c1 (stereo not drawn) [isoprénaline, reference compound] | – | 0.02 µg/kg | ~140 bat/min | –
